From patent US8916573B2, “Quinazoline-2,4-dione derivatives” (Actelion Pharmaceuticals Ltd., priority 2011, dated 2014) come the findings set out here.

The experiment concerns S. aureus 29213. The experiment is described as follows: Bacterial growth minimal inhibitory concentrations (microdilution, cation-adjusted Mueller-Hinton Broth, CLSI M7-A7). It is filed as cell-based. The note with it: Staphylococcus aureus, 29213; microdilution in cation-adjusted Mueller-Hinton Broth. For orientation: Broth dilution looks for growth in wells or tubes with falling amounts of substance.

≈ marks a conversion by molar mass, not a printed value.

`O=C1CSc2ccc(N3C[C@@H](CCCn4c(=O)[nH]c5cccc(F)c5c4=O)OC3=O)cc2N1` [Example 17, 5-fluoro-3-{3-[(R)-2-oxo-3-(3-oxo-3,4-dihydro-2H-benzo[1,4]thiazin-6-yl)-oxazolidin-5-yl]-propyl}-1H-quinazoline-2,4-dione]: the MIC was 0.125 µg/mL (≈ 0.266 µM).
The same measure for `Cn1c(=O)n(CCNC[C@@H]2CN(c3ccc4c(n3)NC(=O)CS4)C(=O)O2)c(=O)c2ccccc21.O=CO` [Example 55, 1-methyl-3-(2-{[(R)-2-oxo-3-(3-oxo-3,4-dihydro-2H-pyrido[3,2-b][1,4]thiazin-6-yl)-oxazolidin-5-ylmethyl]-amino}-ethyl)-1H-quinazoline-2,4-dione formate salt]: 0.031 µg/mL.

The term MIC denotes the lowest concentration found to suppress growth.
